The test system of this assay is BDF1 mice, B16 melanoma ip, median survival T/C. Kind of assay: NCI In Vivo Anticancer Drug Screen. Data for tumor model B16 Melanoma (intraperitoneal) in B6D2F1 (BDF1) mice. To be noted: endpoint: median survival time, higher = longer survival. In short, it runs like this:
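Tumor-bearing mice received test compound or vehicle. Survival or tumor size was then measured in both groups. The treated-group figure was divided by the control-group figure.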

Setting [1] is: dose: 100.0 mg/kg/injection, schedule: Q01DX009 (ip), vehicle: Klucel (hydroxypropylcellulose) (HPC).
[2] abbreviates: dose: 200.0 mg/kg/injection, schedule: Q01DX009 (ip), vehicle: Klucel (hydroxypropylcellulose) (HPC).
Setting [3] is: dose: 400.0 mg/kg/injection, schedule: Q01DX009 (ip), vehicle: Klucel (hydroxypropylcellulose) (HPC).
Setting [4] is: dose: 50.0 mg/kg/injection, schedule: Q01DX009 (ip), vehicle: Klucel (hydroxypropylcellulose) (HPC).
Setting [5] is: dose: 6.25 mg/kg/injection, schedule: Q01DX009 (ip), vehicle: saline with Tween-80.
Where [6] appears, read: dose: 12.5 mg/kg/injection, schedule: Q01DX009 (ip), vehicle: saline.
[7] abbreviates: dose: 25.0 mg/kg/injection, schedule: Q01DX009 (ip), vehicle: saline.
The mark [8] stands for this setting: dose: 50.0 mg/kg/injection, schedule: Q01DX009 (ip), vehicle: saline.

Here are results for 21 compounds from PubChem BioAssay AID192 (DTP/NCI, 2004).

Each structure is given as a SMILES string. Several values for one entry are separate records, joined by “and”; a condition that tells them apart may be missing. Identical values can stand only once. Inconclusive results and toxic doses are left out.

On to `COc1cc2c(=O)oc3c(OC)c(O)cc4c(=O)oc(c1OC)c2c34`, for which the T/C is, setting by setting: (dose: 4.0 mg/kg/injection, schedule: Q01DX009 (ip), vehicle: saline with Tween-80) 100 % of control; (dose: 8.0 mg/kg/injection, schedule: Q01DX009 (ip), vehicle: saline with Tween-80) 94 % of control; (dose: 16.0 mg/kg/injection, schedule: Q01DX009 (ip), vehicle: saline with Tween-80) 96 % of control; (dose: 32.0 mg/kg/injection, schedule: Q01DX009 (ip), vehicle: saline with Tween-80) 90 % of control.

As to `O=S(=O)(O)C(Nc1ccccc1)c1ccccc1` (stereo not drawn), the T/C is 93 % of control (dose: 100.0 mg/kg/injection, schedule: Q01DX009 (ip), vehicle: saline sonified); 93 % of control (dose: 200.0 mg/kg/injection, schedule: Q01DX009 (ip), vehicle: saline sonified); 102 % of control (dose: 400.0 mg/kg/injection, schedule: Q01DX009 (ip), vehicle: saline sonified).

Turning to `CC(=O)c1cccc(NC(=O)Nc2ccccc2)c1`, the T/C runs as follows: under setting [1], 96 % of control; under setting [2], 91 % of control; under setting [3], 96 % of control.

With `C#CC1(OCC2CN(c3ccccc3)C(=O)O2)CCCCC1` (stereo not drawn), the T/C runs as follows: (dose: 25.0 mg/kg/injection, schedule: Q01DX009 (ip), vehicle: Klucel (hydroxypropylcellulose) (HPC)) 93 % of control; under setting [4], 95 % of control; under setting [1], 95 % of control; (dose: 100.0 mg/kg/injection, schedule: Q04DX003 (ip), vehicle: saline with Tween-80) 97 % of control; under setting [2], 102 % of control; (dose: 200.0 mg/kg/injection, schedule: Q04DX003 (ip), vehicle: saline with Tween-80) 102 % of control. The T/C under setting [3] was 91 % of control and the T/C (dose: 400.0 mg/kg/injection, schedule: Q04DX003 (ip), vehicle: saline with Tween-80) is 100 % of control.

Regarding `CCC[CH2][Sn](=[S])[CH2]CCC`, the T/C is, setting by setting: (dose: 0.78 mg/kg/injection, schedule: Q01DX009 (ip), vehicle: saline) 98 % of control; (dose: 1.56 mg/kg/injection, schedule: Q01DX009 (ip), vehicle: saline) 102 % of control; (dose: 6.25 mg/kg/injection, schedule: Q01DX009 (ip), vehicle: other) 97 % of control; under setting [5], 109 % of control; (dose: 6.25 mg/kg/injection, schedule: Q01DX009 (ip), vehicle: saline) 107 % of control; (dose: 6.25 mg/kg/injection, schedule: Q04DX003 (ip), vehicle: other) 105 % of control.

Regarding `CN1CC[C@]23c4c5ccc(O)c4O[C@H]2C(=O)CC[C@H]3[C@H]1C5`, the T/C is, setting by setting: (dose: 12.5 mg/kg/injection, schedule: Q01DX005 (iv), vehicle: saline) 86 % of control; under setting [6], 94 % of control; (dose: 25.0 mg/kg/injection, schedule: Q01DX005 (iv), vehicle: saline) 111 % of control; under setting [7], 98 % of control; (dose: 50.0 mg/kg/injection, schedule: Q01DX005 (iv), vehicle: saline) 95 % of control; under setting [8], 100 % of control.

Take `O=C(N/N=C\c1ccc(N(CCCl)CCCl)cc1)c1cccnc1`: the T/C is, setting by setting: (dose: 100.0 mg/kg/injection, schedule: Q01DX009 (ip), vehicle: gum acacia) 91 % of control; (dose: 200.0 mg/kg/injection, schedule: Q01DX009 (ip), vehicle: gum acacia) 102 % of control; (dose: 400.0 mg/kg/injection, schedule: Q01DX009 (ip), vehicle: gum acacia) 102 % of control.

Turning to `C[n+]1cc2c3ccccc3c(N)cc2c2ccccc21`, the T/C (dose: 3.13 mg/kg/injection, schedule: Q01DX009 (ip), vehicle: saline) is 106 % of control.

`CC(N)CN(C)C` (stereo not drawn): the T/C is, setting by setting: under setting [8], 101 % of control; (dose: 100.0 mg/kg/injection, schedule: Q01DX009 (ip), vehicle: saline) 102 % of control; (dose: 200.0 mg/kg/injection, schedule: Q01DX009 (ip), vehicle: saline) 93 % of control.

As to `[Cl][Pt][Cl].[NH-]C(CO)C(=O)O` (stereo not drawn), the T/C (dose: 12.5 mg/kg/injection, schedule: Q01DX009 (ip), vehicle: water) is 151 % of control.

In the case of `O=C1C(Cl)=C(N=Nc2c(Cl)c(O)c3ccccc3c2O)C(=O)c2ccccc21`, the T/C under setting [6] is 89 % of control and the T/C under setting [7] is 86 % of control.

As to `O=[N+]([O-])O.[NH-]C1CCCCC1[NH-].[NH-]C1CCCCC1[NH-].[NH-]C1CCCCC1[NH-].[OH-].[OH-].[OH-].[Pt+4].[Pt+4].[Pt+4]` (stereo not drawn), the T/C is 109 % of control and 119 % of control (dose: 0.25 mg/kg/injection, schedule: Q01DX009 (ip), vehicle: water); 113 % of control and 123 % of control (dose: 0.5 mg/kg/injection, schedule: Q01DX009 (ip), vehicle: water).

`c1ccc2c[n+](CCCCCCCCCC[n+]3ccc4ccccc4c3)ccc2c1`: the T/C is 88 % of control (dose: 2.5 mg/kg/injection, schedule: Q01DX009 (ip), vehicle: saline); 97 % of control (dose: 5.0 mg/kg/injection, schedule: Q01DX009 (ip), vehicle: saline); 97 % of control (dose: 10.0 mg/kg/injection, schedule: Q01DX009 (ip), vehicle: saline); 92 % of control (dose: 10.0 mg/kg/injection, schedule: Q04DX003 (ip), vehicle: saline).

As for `CCN(CCP(c1ccccc1)c1ccccc1)CCP(c1ccccc1)c1ccccc1`, the T/C was 119 % of control (dose: 3.13 mg/kg/injection, schedule: Q01DX009 (ip), vehicle: saline with Tween-80); 113 % of control under setting [5]; 90 % of control and 115 % of control (dose: 12.5 mg/kg/injection, schedule: Q01DX009 (ip), vehicle: saline with Tween-80); 104 % of control (dose: 12.5 mg/kg/injection, schedule: Q04DX003 (ip), vehicle: saline with Tween-80); 100 % of control (dose: 25.0 mg/kg/injection, schedule: Q01DX009 (ip), vehicle: saline with Tween-80); 107 % of control (dose: 25.0 mg/kg/injection, schedule: Q04DX003 (ip), vehicle: saline with Tween-80). The T/C (dose: 50.0 mg/kg/injection, schedule: Q04DX003 (ip), vehicle: saline with Tween-80) is 109 % of control.

As to `CCC1(O)CC(OC2CC(N(C)C)C(OC3CC(O)C(OC4CCC(=O)C(C)O4)C(C)O3)C(C)O2)c2c(cc3c(c2O)C(=O)c2c(O)ccc(O)c2C3=O)C1C(=O)OC` (stereo not drawn), the T/C is, setting by setting: (dose: 0.23 mg/kg/injection, schedule: Q01DX009 (ip), vehicle: saline with Tween-80) 98 % of control; (dose: 3.6 mg/kg/injection, schedule: Q01DX001 (ip), vehicle: water) 101 % of control and 109 % of control; (dose: 6.0 mg/kg/injection, schedule: Q01DX001 (ip), vehicle: water) 106 % of control and 112 % of control; (dose: 10.0 mg/kg/injection, schedule: Q01DX001 (ip), vehicle: water) 111 % of control.

In the case of `O=S(=O)(O)O.[Ga]`, the T/C under setting [6] was 101 % of control, the T/C under setting [7] was 94 % of control and the T/C under setting [8] is 91 % of control.

On to `O=S(c1ccccc1)c1c(Cl)c(Cl)nc(Cl)c1Cl` (stereo not drawn), for which the T/C reads like this: (dose: 6.25 mg/kg/injection, schedule: Q01DX009 (ip), vehicle: Klucel (hydroxypropylcellulose) (HPC)) 94 % of control; (dose: 12.5 mg/kg/injection, schedule: Q01DX009 (ip), vehicle: Klucel (hydroxypropylcellulose) (HPC)) 100 % of control.

On to `O=C(Cc1ccc2cc3c(cc2c1)OCO3)NCCc1ccc2c(c1)OCO2`, for which the T/C is 105 % of control under setting [1], 94 % of control under setting [2] and 91 % of control under setting [3].

For `CN(CCO)C1=C(N2CC2)C(=O)C(N(C)CCO)=C(N2CC2)C1=O`, the T/C was 111 % of control (dose: 100.0 micrograms/kg/injection, schedule: Q01DX009 (ip), vehicle: saline) and 118 % of control (dose: 200.0 micrograms/kg/injection, schedule: Q01DX009 (ip), vehicle: saline).

On to `O=C(Nc1cccc(Cl)c1)OCC(Cl)(Cl)Cl`, for which the T/C was 109 % of control (dose: 75.0 mg/kg/injection, schedule: Q01DX009 (ip), vehicle: Klucel (hydroxypropylcellulose) (HPC)); 103 % of control (dose: 150.0 mg/kg/injection, schedule: Q01DX009 (ip), vehicle: Klucel (hydroxypropylcellulose) (HPC)); 103 % of control (dose: 300.0 mg/kg/injection, schedule: Q01DX009 (ip), vehicle: Klucel (hydroxypropylcellulose) (HPC)).

Regarding `Cc1ccccc1N=Cc1ccc2c(c1)OCO2`, the T/C reads like this: under setting [4], 102 % of control; under setting [1], 95 % of control; under setting [2], 100 % of control.
